Like-named read-outs stand apart in the source and are kept apart here.
Assays:
[1] = system: C. elegans; experiment: Aldicarb sensitivity (paralysis) of C. elegans; assay type: in vivo
From the text: (§1) Based on studies of other known mutants in C. elegans, hypersensitivity to aldicarb may indicate an increase in synaptic transmission of acetylcholine compared with wild-type animals.

[2] = system: C. elegans
From the text: The F2 population was screened to identify animals that were homozygous for recessive mutations or heterozygous for dominant mutations that alter sensitivity to the effects of ethanol on locomotion. Wild-type C. elegans normally move with a sinusoid pattern of locomotion, but when exposed to high concentrations of ethanol, they display extreme, reversible (after the removal of ethanol) uncoordination and paralysis. Animals that are resistant to the effects of ethanol display the sinusoid pattern of locomotion even in the presence of high concentrations of ethanol. To identify the mutants, animals of the F2 generation were washed from their plates into 1.5 ml tubes, rinsed free of bacteria and incubated in a solution of 400 mM ethanol for 30-50 min. The worms were then transferred to the center of 100 mm petri plates that held media containing 400 mM ethanol and a circle of E. coli (OP50) bacteria on the periphery of the media. […] Animals that moved to the bacteria quickly and with a wild-type pattern of locomotion were identified as ethanol-resistant candidates.
The slo-1 gene is expressed in most, if not all neurons, and in body wall muscle but not in pharyngeal muscle. […] BK4.1 has the slo-1 cdNA fused with the promoter from the C. elegans body muscle myosin (myo-3) gene, which is expressed exclusively in body muscle. We transformed animals homozygous for a known null mutation of slo-1(js118) with each of these DNA constructs separately where the concentration of the BK3.1 or BK4.1 constructs was 20 ng/μ1 in the injection solution. So that we could identify transformed progeny of the injected animals we coinjected a DNA construct that expresses the green fluorescent protein (GFP) in neurons with BK3.1 and a construct that expresses GFP in body muscle with BK4.1. In this way we could examine the progeny of the injected animals under a UV microscope and any animals showing GFP fluorescence have been transformed with the injected DNA. If transformed animals are picked to individual plates and their progeny examined for the presence of GFP, only the animals that are germ-line transformants will have progeny expressing GFP.
(§2) To rule out the possibility of hyperactivity contributing to the resistance seen in slo-1, we compared the level of resistance caused by mutations in slo-1 with the resistance induced by mutations in other regulators of neuron activity including loss-of-function mutations in dgk-1 and goa-1 and a gain-of-function mutation in egl-30. Each of these mutants appears phenotypically hyperactive with increased amplitude of body bends and hyperactive egg laying. […] When SLO-1 is absent the ethanol […] in the nervous system and its effects are greatly minimized.

[3] = system: C. elegans; remark: listed apart in the source
From the text: These mutants were examined for the effect of ethanol on two behaviors other than locomotion: egg laying and pharyngeal pumping. […] Unlike wild-type worms, the egg-laying behavior of BZ6, BZ7 and BZ73 worms was unaffected by high doses of ethanol.
as §2

[4] = system: C. elegans; remark: listed apart in the source
From the text: as §1

[5] = molecular target: BK channels (Homo sapiens, UniProt Q12791); details: cited from earlier work
Chain of BK channels (Q12791 whole entry): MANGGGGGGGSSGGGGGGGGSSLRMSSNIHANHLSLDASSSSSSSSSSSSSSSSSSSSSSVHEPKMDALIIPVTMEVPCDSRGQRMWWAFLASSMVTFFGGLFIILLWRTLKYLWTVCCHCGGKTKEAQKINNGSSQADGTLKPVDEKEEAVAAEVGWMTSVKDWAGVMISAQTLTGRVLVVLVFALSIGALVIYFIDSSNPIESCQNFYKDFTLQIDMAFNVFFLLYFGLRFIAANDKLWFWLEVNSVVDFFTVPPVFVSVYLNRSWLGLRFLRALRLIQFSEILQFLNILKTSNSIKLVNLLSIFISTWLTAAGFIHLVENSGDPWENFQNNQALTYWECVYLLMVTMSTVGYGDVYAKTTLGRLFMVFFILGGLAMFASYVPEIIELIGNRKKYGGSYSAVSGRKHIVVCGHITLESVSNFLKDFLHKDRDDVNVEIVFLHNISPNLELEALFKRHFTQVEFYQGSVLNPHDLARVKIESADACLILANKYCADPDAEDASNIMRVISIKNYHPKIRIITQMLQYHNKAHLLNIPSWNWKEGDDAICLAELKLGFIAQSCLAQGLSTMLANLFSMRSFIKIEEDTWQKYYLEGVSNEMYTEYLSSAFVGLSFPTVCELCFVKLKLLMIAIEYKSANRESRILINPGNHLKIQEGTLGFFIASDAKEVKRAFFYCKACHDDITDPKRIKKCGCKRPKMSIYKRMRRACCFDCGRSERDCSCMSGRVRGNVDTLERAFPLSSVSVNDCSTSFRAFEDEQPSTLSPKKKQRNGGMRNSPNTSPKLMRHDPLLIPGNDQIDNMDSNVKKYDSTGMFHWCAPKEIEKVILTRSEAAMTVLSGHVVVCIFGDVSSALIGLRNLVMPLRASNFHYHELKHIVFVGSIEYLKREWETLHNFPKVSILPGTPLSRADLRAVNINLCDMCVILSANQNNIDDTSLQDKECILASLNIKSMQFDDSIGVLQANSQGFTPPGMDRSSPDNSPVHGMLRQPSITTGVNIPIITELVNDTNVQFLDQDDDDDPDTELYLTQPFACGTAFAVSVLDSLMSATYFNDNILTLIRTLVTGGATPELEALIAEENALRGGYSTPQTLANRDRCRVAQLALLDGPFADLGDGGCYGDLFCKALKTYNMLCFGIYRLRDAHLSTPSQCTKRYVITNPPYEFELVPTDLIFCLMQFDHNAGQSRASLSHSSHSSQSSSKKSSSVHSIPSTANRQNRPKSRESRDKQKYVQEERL

CNC(=O)O/N=C/C(C)(C)SC [aldicarb]
concentrations of aldicarb at which paralysis is displayed ([1]; ethanol-resistant mutants (BZ6, BZ7, BZ8, BZ73)): 0.1 to 0.25 mM | effect of aldicarb ([1]; wild-type animals, 0.1-0.25 mM): only mildly affect

CCO [ethanol]
decrease in speed ([2]; dgk-1(sy428)): 40% | decrease in speed ([2]; egl-30(js126gf)): 40% | decrease in speed ([2]; slo-1(js118) animals carrying a BK3.1 transgene (SLO-1 only in neurons)): 70% | decrease in speed ([2]; slo-1(js118) animals carrying a BK4.1 transgene (SLO-1 only in body muscle)): little or no decrease in speed | decrease in speed ([2]; slo-1(js118) animals, intoxicating doses of ethanol): no decrease in speed | decrease in speed ([2]; three slo-1 mutations js118, eg6 and eg73, ethanol dose giving 60% decrease in wild-type): no decrease in speed | effect on locomotion ([2]; wild-type animals, 400 mM ethanol): severe uncoordination and lethargy | decrease in speed ([2]; wild-type animals, intoxicating doses of ethanol): 60% | effect on egg-laying ([3]; BZ6, BZ7 and BZ73 worms, high doses of ethanol): unaffected | effect on egg-laying ([3]; BZ6, BZ7 and BZ73 worms, low doses (e.g. 50-100 mM exogenous concentration)): lay more eggs than wild-type worms | effect on egg-laying ([3]; BZ8, high doses of ethanol): did not display this ethanol-resistance | decrease in egg laying ([3]; egl-30(js126)): 72% | decrease in egg laying ([3]; goa-1(n1134)): 80% | decrease in egg laying ([3]; slo-1(eg24)): 12% | decrease in egg laying rate ([3]; slo-1(eg142)): no decrease in egg laying rate | effect on egg-laying ([3]; wild-type C. elegans, high doses (e.g. 400 mM exogenous concentration)): almost completely suppress egg-laying | decrease in egg laying ([3]; wild-type strain): 96%

c1ccc([C@H]2CN3CCSC3=N2)cc1 [levamisole]
response to levamisole ([4]; BZ6, BZ7 and BZ73, 60-100 μM): wild-type response | response to levamisole ([4]; BZ8): hypersensitive

Iberiotoxin (QFTDVDCSVSKECWSVCKDLFGVDRGKCMGKKCRCYQ; UniProt P24663 1-37, looked up)
effective concentration as blocker of BK channels [5]: about 10 nM

Source: patent US20030211547A1 (priority 2002, published 2003)
